Measurements taken from ChEMBL document CHEMBL3272271, “Folate antagonists. 13. 2,4-Diamino-6-](alpha,alpha,alpha-trifluoro-m-tolyl)thio]quinazoline and related 2,4-diamino-6-[(phenyl- and naphthyl)thio]quinazolines, a unique class of antimetabolites with extraordinary antimalarial and antibacterial effects” (J Med Chem, 1978).
Values after ≈ are worked out from the molar mass of the structure shown. Active and inactive are the calls of the source. The calls are words filed in the database; no cut-off is given here.

Assays:
[1] = test system: Plasmodium berghei; experiment: Antimalarial activity against trophozoite-induced Plasmodium berghei infected in mouse assessed as daily dose required to suppression of 90% parasite infection administered with diet for 6 days; assay type: functional
[2] = test system: Enterococcus faecalis; experiment: Antibacterial activity against Streptococcus faecalis MGH-2 by gradient plate test; assay type: functional
[3] = test system: Plasmodium berghei; experiment: Antimalarial activity against Plasmodium berghei infected in mouse assessed as increase in mean survival days of host at 20 mg/kg, sc administered 72 hrs after infection relative to control; assay type: functional; conditions: route subcutaneous
[4] = test system: Pseudomonas aeruginosa; experiment: Antibacterial activity against Pseudomonas aeruginosa 28 by gradient plate test; assay type: functional
[5] = test system: Staphylococcus aureus; experiment: Antibacterial activity against drug-resistant Staphylococcus aureus S18713 by gradient plate test; assay type: functional
[6] = test system: Plasmodium berghei; experiment: Antimalarial activity against Plasmodium berghei infected in mouse assessed as increase in mean survival days of host at 80 mg/kg, sc administered 72 hrs after infection relative to control; assay type: functional; conditions: route subcutaneous
[7] = test system: Staphylococcus aureus; experiment: Antibacterial activity against Staphylococcus aureus UC-96 by gradient plate test; assay type: functional
[8] = test system: Plasmodium berghei; experiment: Antimalarial activity against Plasmodium berghei infected in mouse assessed as increase in mean survival days of host at 40 mg/kg, sc administered 72 hrs after infection relative to control; assay type: functional; conditions: route subcutaneous
[9] = test system: Plasmodium berghei; experiment: Antimalarial activity against Plasmodium berghei infected in mouse assessed as increase in mean survival days of host at 10 mg/kg, sc administered 72 hrs after infection relative to control; assay type: functional; conditions: route subcutaneous
[10] = test system: Plasmodium berghei; experiment: Ratio of quinine hydrochloride SD90 to compound SD90 for trophozoite-induced Plasmodium berghei infected in mouse assessed as daily dose required to suppression of 90% parasite infection administered with diet for 6 days; assay type: functional
[11] = test system: Shigella sonnei; experiment: Antibacterial activity against Shigella sonnei C-10 by gradient plate test; assay type: functional
[12] = test system: Plasmodium berghei; experiment: Antimalarial activity against Plasmodium berghei infected in mouse assessed as disease cure from parasite infection at 320 mg/kg, sc administered 72 hrs after infection; assay type: functional, organism-based; set-up: dose 320 mg/kg
[13] = test system: Plasmodium berghei; experiment: Antimalarial activity against Plasmodium berghei infected in mouse assessed as disease cure from parasite infection at 640 mg/kg, sc administered 72 hrs after infection; assay type: functional, organism-based; set-up: dose 640 mg/kg
[14] = test system: Plasmodium berghei; experiment: Antimalarial activity against Plasmodium berghei infected in mouse assessed as increase in mean survival days of host at 160 mg/kg, sc administered 72 hrs after infection relative to control; assay type: functional; conditions: route subcutaneous
[15] = test system: Escherichia coli; experiment: Antibacterial activity against Escherichia coli Vogel by gradient plate test; assay type: functional
[16] = test system: Plasmodium berghei; experiment: Antimalarial activity against Plasmodium berghei infected in mouse assessed as increase in mean survival days of host at 320 mg/kg, sc administered 72 hrs after infection relative to control; assay type: functional; conditions: route subcutaneous
[17] = test system: Plasmodium gallinaceum; experiment: Antimalarial activity against trophozoite-induced Plasmodium gallinaceum infected in white leghorn chicken assessed as increase in mean survival days of host at 40 mg/kg, sc administered 72 hrs after infection relative to control; assay type: functional; conditions: route subcutaneous
[18] = test system: Plasmodium gallinaceum; experiment: Antimalarial activity against trophozoite-induced Plasmodium gallinaceum infected in white leghorn chicken assessed as increase in mean survival days of host at 160 mg/kg, sc administered 72 hrs after infection relative to control; assay type: functional; conditions: route subcutaneous
[19] = test system: Plasmodium gallinaceum; experiment: Antimalarial activity against trophozoite-induced Plasmodium gallinaceum infected in white leghorn chicken assessed as increase in mean survival days of host at 80 mg/kg, sc administered 72 hrs after infection relative to control; assay type: functional; conditions: route subcutaneous
[20] = test system: Plasmodium berghei; experiment: Antimalarial activity against Plasmodium berghei infected in mouse assessed as increase in mean survival days of host at 5 mg/kg, sc administered 72 hrs after infection relative to control; assay type: functional; conditions: route subcutaneous
[21] = test system: Plasmodium gallinaceum; experiment: Antimalarial activity against trophozoite-induced Plasmodium gallinaceum infected in white leghorn chicken assessed as increase in mean survival days of host at 10 mg/kg, sc administered 72 hrs after infection relative to control; assay type: functional; conditions: route subcutaneous
[22] = test system: Plasmodium gallinaceum; experiment: Antimalarial activity against trophozoite-induced Plasmodium gallinaceum infected in white leghorn chicken assessed as increase in mean survival days of host at 320 mg/kg, sc administered 72 hrs after infection relative to control; assay type: functional; conditions: route subcutaneous
[23] = test system: Plasmodium berghei; experiment: Antimalarial activity against Plasmodium berghei infected in mouse assessed as disease cure from parasite infection at 160 mg/kg, sc administered 72 hrs after infection; assay type: functional, organism-based; set-up: dose 160 mg/kg
[24] = test system: Plasmodium gallinaceum; experiment: Antimalarial activity against trophozoite-induced Plasmodium gallinaceum infected in white leghorn chicken assessed as increase in mean survival days of host at 20 mg/kg, sc administered 72 hrs after infection relative to control; assay type: functional; conditions: route subcutaneous
[25] = test system: Plasmodium gallinaceum; experiment: Antimalarial activity against sporozoite-induced Plasmodium gallinaceum infected in white leghorn chicken assessed as disease cure from parasite infection at 120 mg/kg, sc administered 72 hrs after infection; assay type: functional, organism-based; set-up: dose 120 mg/kg
[26] = test system: Plasmodium gallinaceum; experiment: Antimalarial activity against sporozoite-induced Plasmodium gallinaceum infected in white leghorn chicken assessed as increase in mean survival days of host at 15 mg/kg, sc administered 72 hrs after infection relative to control; assay type: functional; conditions: route subcutaneous
[27] = test system: Plasmodium gallinaceum; experiment: Antimalarial activity against sporozoite-induced Plasmodium gallinaceum infected in white leghorn chicken assessed as disease cure from parasite infection at 15 mg/kg, sc administered 72 hrs after infection; assay type: functional, organism-based; set-up: dose 15 mg/kg
[28] = test system: Plasmodium gallinaceum; experiment: Antimalarial activity against sporozoite-induced Plasmodium gallinaceum infected in white leghorn chicken assessed as disease cure from parasite infection at 60 mg/kg, sc administered 72 hrs after infection; assay type: functional, organism-based; set-up: dose 60 mg/kg
[29] = test system: Plasmodium berghei; experiment: Antimalarial activity against Plasmodium berghei infected in mouse assessed as disease cure from parasite infection at 80 mg/kg, sc administered 72 hrs after infection; assay type: functional, organism-based; set-up: dose 80 mg/kg
[30] = test system: Mycobacterium tuberculosis; experiment: Antibacterial activity against Mycobacterium tuberculosis H37Ra by gradient plate test; assay type: functional
[31] = test system: Plasmodium gallinaceum; experiment: Antimalarial activity against sporozoite-induced Plasmodium gallinaceum infected in white leghorn chicken assessed as disease cure from parasite infection at 240 mg/kg, sc administered 72 hrs after infection; assay type: functional, organism-based; set-up: dose 240 mg/kg
[32] = test system: Plasmodium gallinaceum; experiment: Antimalarial activity against sporozoite-induced Plasmodium gallinaceum infected in white leghorn chicken assessed as disease cure from parasite infection at 30 mg/kg, sc administered 72 hrs after infection; assay type: functional, organism-based; set-up: dose 30 mg/kg
[33] = test system: Plasmodium gallinaceum; experiment: Antimalarial activity against sporozoite-induced Plasmodium gallinaceum infected in white leghorn chicken assessed as disease cure from parasite infection at 480 mg/kg, sc administered 72 hrs after infection; assay type: functional, organism-based; set-up: dose 480 mg/kg
[34] = test system: Plasmodium gallinaceum; experiment: Antimalarial activity against sporozoite-induced Plasmodium gallinaceum infected in white leghorn chicken assessed as disease cure from parasite infection at 160 mg/kg, sc administered 72 hrs after infection; assay type: functional, organism-based; set-up: dose 160 mg/kg
[35] = test system: Plasmodium berghei; experiment: Antimalarial activity against Plasmodium berghei infected in mouse assessed as disease cure from parasite infection at 40 mg/kg, sc administered 72 hrs after infection; assay type: functional, organism-based; set-up: dose 40 mg/kg
[36] = test system: Plasmodium gallinaceum; experiment: Antimalarial activity against sporozoite-induced Plasmodium gallinaceum infected in white leghorn chicken assessed as disease cure from parasite infection at 80 mg/kg, sc administered 72 hrs after infection; assay type: functional, organism-based; set-up: dose 80 mg/kg
[37] = test system: Plasmodium gallinaceum; experiment: Antimalarial activity against sporozoite-induced Plasmodium gallinaceum infected in white leghorn chicken assessed as disease cure from parasite infection at 320 mg/kg, sc administered 72 hrs after infection; assay type: functional, organism-based; set-up: dose 320 mg/kg

| SMILES | MIC [2] | MST [3] | MIC [4] | MIC [5] | MST [6] | MIC [7] | MST [8] | MST [9] | MIC [11] | Activity [12] | Activity [13] | MST [14] | MIC [15] | MST [16] | Activity [23] | Activity [29] | MIC [30] | other results |
| --- | --- | --- | --- | --- | --- | --- | --- | --- | --- | --- | --- | --- | --- | --- | --- | --- | --- | --- |
| CC(C)(C)c1ccc(Sc2ccc3nc(N)nc(N)c3c2)cc1 | < 0.25 µg/mL | 1 days | > 25 µg/mL | < 0.25 µg/mL | 6 days | < 0.25 µg/mL | 2.6 days | 1.1 days | 15 µg/mL (≈ 46.2 µM) | Active | Active | 7.8 days | 10 µg/mL (≈ 30.8 µM) | 17.9 days | – | – | – | SD90 [1]: 18 mg/kg/day; Ratio [10]: 4.1 |
| Nc1nc(N)c2cc(Sc3ccccc3Cl)ccc2n1 | < 0.25 µg/mL | 0.5 days | > 25 µg/mL | < 0.25 µg/mL | 8.1 days | < 0.25 µg/mL | 0.5 days | 0.3 days | 2 µg/mL (≈ 6.61 µM) | Active | – | 10.9 days | < 0.25 µg/mL | 18.9 days | Active | – | – | MST [17]: 7.6 days; MST [18]: 19.8 days; MST [19]: 10.2 days; MST [20]: 0.3 days; MST [21]: 0 days; MST [22]: 20.8 days; MST [24]: 6 days |
| Nc1nc(N)c2cc(Sc3ccc(O)cc3)ccc2n1 | < 0.25 µg/mL | 6.3 days | 20 µg/mL (≈ 70.3 µM) | < 0.25 µg/mL | 10.9 days | < 0.25 µg/mL | 11.9 days | 2.9 days | 15 µg/mL (≈ 52.8 µM) | Active | Active | 13.6 days | 2.5 µg/mL (≈ 8.79 µM) | – | Active | Active | > 25 µg/mL | Activity [25]: Active; MST [26]: 4.7 days; Activity [27]: Active; Activity [28]: Active; Activity [31]: Active; Activity [32]: Active; Activity [33]: Active |
| Nc1nc(N)c2c(Cl)c(Sc3cccc(C(F)(F)F)c3)ccc2n1 | < 0.25 µg/mL | 5.9 days | > 25 µg/mL | < 0.25 µg/mL | 19.9 days | < 0.25 µg/mL | 14.7 days | – | 2 µg/mL (≈ 5.39 µM) | Active | Active | 24.9 days | 0.5 µg/mL (≈ 1.35 µM) | – | Active | Active | 10 µg/mL (≈ 27 µM) | Activity [34]: Active; Activity [35]: Active; Activity [36]: Active; Activity [37]: Active |
| Nc1nc(N)c2cc(Sc3cccc(Cl)c3)ccc2n1 | 10 µg/mL (≈ 33 µM) | 0.5 days | > 25 µg/mL | 5 µg/mL (≈ 16.5 µM) | 4.3 days | 2.5 µg/mL (≈ 8.26 µM) | 3.5 days | 0.5 days | 20 µg/mL (≈ 66.1 µM) | Active | Active | 4.9 days | 10 µg/mL (≈ 33 µM) | 20.9 days | – | – | > 25 µg/mL | – |
